The source of these data is patent US20230149401A1 (priority 2020, published 2023).

Assay [1] concerns the target TMPRSS2 (Homo sapiens, UniProt O15393). The assay is classed as cell-based. Set-up: expressed in transfected cells; host or cells: HeLa. To be noted: HeLa cells.
Assay [2] has as its system endogenous furin-like enzymes. The assay is classed as cell-based. To be noted: HeLa-ACE2 cells.
The test system of assay [3] is SARS-CoV-2 Spike ACE2-dependent cell-to-cell fusion. Put plainly: microbe, parasite or virus in culture. The class given is cell-based. Particulars: Severe acute respiratory syndrome coronavirus 2; 300 nM.
Assay [4] deals with T1, PACE4 (PCSK6) (Homo sapiens, UniProt P29122).
T1 construct: PACE4 (PCSK6; 150-693-Tev-Flag-6His); Tev site (C); Flag (C); 6His (C); made in house; host or cells: BacMam transduced CHO cells
Nature of the assay: Biochemical PC-inhibition assay, substrate FAM-[…]-TAMRA. As to the method: (§1) Biochemical assay: The proprotein convertases furin (108-574-Tev-Flag-6His), PC5A (PCSK5; […]-Tev-Flag-6His), PACE4 (PCSK6; 150-693-Tev-Flag-6His), and PC7 (PCSK7; 142-634-Tev-Flag-6His) enzymes were purified from BacMam transduced CHO cells. […] 0.05 μl of each concentration was transferred to the corresponding well of an assay plate, and then 5 μl of enzyme (furin, PCSK5, PCSK6, and PCSK7) in assay buffer (100 mM HEPES pH 7.5, 1 mM CaCl2) and 0.005% Triton X-100) was added using a Multidrop Combi (Thermo) to the compound plates to give a final protein concentration of 0.02, 0.5, 2.5, and 1.0 nM respectively. The plates were mixed by inversion, and following a 30 min preincubation of enzyme with compound at room temperature (˜22° C.), the substrate FAM-[…] -TAMRA (AnaSpec #808143, 5 μl of a 1, 0.25, 0.20, and 0.5 μM solution in assay buffer for furin, PCSK5, PCSK6, and PCSK7 respectively) was added using a Multidrop Combi to the entire assay plate. The plates were centrifuged at 500×g for 1 minute and incubated at room temperature for two hours. Enzyme inhibition was then quantified using an Envision instrument (PerkinElmer). Data were normalized to maximal inhibition determined by 1 μM Decanoyl-Arg-Val-Lys-Arg-Chloromethylketone (Calbiochem #344930). Golgi imaging assay: This assay uses an image-based platform to evaluate the intracellular activity of furin inhibitors. Reactions were performed in black 384-well, tissue culture-treated, clear bottom plates (Greiner). Compounds under analysis were dissolved in DMSO (1.0 mM) and serially diluted 1 to 3 with DMSO through eleven dilutions. This creates a final compound concentration range from 0.00017 to 10 μM, and 0.1 μL of each concentration was transferred to the corresponding well of the assay plate.

Assay [5] addresses T2, PC5A (PCSK5) (Homo sapiens, UniProt Q92824).
T2 construct: fused on or other part: C-terminal Tev site, Flag tag and 6His tag
The assay is described as above. As to the method:
as §1

Assay [6] deals with T3, PC7 (PCSK7) (Homo sapiens, UniProt Q16549).
T3 construct: PC7 (PCSK7; 142-634-Tev-Flag-6His); Tev site (C); Flag (C); 6His (C); made in house; host or cells: BacMam transduced CHO cells
The assay is described as above. As to the method:
as §1

Assay [7] deals with furin-like convertases. The assay is classed as cell-based. To be noted: 1 μM; 293T17 producing cells and pseudovirions.
Assay [8] has as its system SARS-CoV-2. Put plainly: microbe, parasite or virus in culture. The class given is cell-based.
Assay [9] relates to SARS-CoV-2. The class given is cell-based.
The test system of assay [10] is HIV particles pseudotyped with SARS-CoV-2 S. The class given is cell-based.

T3 sequence (Q16549 142-634): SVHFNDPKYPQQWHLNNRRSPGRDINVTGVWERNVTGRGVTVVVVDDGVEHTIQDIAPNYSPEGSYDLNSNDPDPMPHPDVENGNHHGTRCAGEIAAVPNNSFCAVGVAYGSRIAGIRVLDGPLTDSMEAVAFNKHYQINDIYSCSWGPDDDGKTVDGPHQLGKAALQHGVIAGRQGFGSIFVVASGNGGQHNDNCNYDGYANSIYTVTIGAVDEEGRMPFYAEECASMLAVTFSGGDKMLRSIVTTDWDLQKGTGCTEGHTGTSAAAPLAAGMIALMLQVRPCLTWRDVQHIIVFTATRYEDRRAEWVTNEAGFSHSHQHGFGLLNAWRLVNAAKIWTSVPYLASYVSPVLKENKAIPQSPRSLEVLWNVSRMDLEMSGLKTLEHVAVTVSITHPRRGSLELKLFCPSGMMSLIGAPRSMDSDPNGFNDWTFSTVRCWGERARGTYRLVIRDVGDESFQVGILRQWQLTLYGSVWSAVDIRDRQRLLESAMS
T1 sequence (P29122 150-693): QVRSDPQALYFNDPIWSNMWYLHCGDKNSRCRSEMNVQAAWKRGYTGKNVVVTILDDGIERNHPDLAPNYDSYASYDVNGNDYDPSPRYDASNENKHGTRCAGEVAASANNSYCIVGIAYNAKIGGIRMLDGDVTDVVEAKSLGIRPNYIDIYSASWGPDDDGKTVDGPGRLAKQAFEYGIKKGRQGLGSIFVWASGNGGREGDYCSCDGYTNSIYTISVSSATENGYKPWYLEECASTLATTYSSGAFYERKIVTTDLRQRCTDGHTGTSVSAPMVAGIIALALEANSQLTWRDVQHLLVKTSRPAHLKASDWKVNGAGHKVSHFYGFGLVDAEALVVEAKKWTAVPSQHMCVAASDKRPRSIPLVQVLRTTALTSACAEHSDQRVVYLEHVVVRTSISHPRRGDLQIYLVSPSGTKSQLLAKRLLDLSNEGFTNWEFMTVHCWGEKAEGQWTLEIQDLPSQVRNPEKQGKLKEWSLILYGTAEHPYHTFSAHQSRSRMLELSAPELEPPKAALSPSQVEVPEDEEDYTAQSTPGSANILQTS
TMPRSS2, sequence (O15393 whole entry): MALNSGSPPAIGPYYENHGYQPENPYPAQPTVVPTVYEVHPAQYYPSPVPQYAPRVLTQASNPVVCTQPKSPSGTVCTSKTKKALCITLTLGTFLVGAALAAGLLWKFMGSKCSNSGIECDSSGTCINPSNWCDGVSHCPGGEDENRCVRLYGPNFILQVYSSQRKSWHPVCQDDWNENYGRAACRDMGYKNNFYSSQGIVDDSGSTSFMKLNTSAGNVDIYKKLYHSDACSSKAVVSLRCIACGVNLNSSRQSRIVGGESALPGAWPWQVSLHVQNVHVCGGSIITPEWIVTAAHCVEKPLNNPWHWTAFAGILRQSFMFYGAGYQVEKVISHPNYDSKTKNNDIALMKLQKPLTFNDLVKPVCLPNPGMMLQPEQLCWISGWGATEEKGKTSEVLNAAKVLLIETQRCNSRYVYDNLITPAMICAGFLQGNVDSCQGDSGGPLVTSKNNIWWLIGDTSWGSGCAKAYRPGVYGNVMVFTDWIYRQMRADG
T2 sequence (Q92824 115-601): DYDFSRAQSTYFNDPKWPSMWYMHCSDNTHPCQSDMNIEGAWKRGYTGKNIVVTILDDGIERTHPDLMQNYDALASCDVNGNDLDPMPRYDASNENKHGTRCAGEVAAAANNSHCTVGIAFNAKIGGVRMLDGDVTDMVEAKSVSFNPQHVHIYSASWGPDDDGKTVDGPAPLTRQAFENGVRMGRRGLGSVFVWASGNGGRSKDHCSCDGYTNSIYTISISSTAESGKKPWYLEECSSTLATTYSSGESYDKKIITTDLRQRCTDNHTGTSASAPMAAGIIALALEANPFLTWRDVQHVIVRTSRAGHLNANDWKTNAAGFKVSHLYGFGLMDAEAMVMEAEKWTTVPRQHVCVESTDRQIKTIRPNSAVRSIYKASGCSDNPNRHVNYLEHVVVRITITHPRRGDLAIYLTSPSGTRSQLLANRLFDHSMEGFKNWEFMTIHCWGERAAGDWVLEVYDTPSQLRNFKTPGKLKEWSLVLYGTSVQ

Usually inhibition stands for the share of the control response that was lost under treatment. What is called IC50 is the concentration at which inhibition is half-maximal. As for `CN1CCN(c2ncc(Oc3cc(CN4CCC(CC(=O)O)CC4)cc(-c4cc(Cl)cc(Cl)c4)n3)cn2)CC1` [Compound 93, 2-(1-((2-(3,5-dichloro-phenyl)-6-((2-(4-methyl-piperazin-1-yl)pyrimidin-5-yl)oxy)pyridin-4-yl)methyl)piperidin-4-yl)acetic acid], the “Generation of S2a and S2b by TMPRSS2” value in assay [1] is reported as “none of the compounds affected”. The “S1/S2 and S2′ processing by endogenous furin-like enzymes” value in assay [2] was “blocked”. Besides, in assay [3], the inhibition at 0.3 µM was above 60%. The IC50 in assay [4] is around 7 nM; in assay [5], around 7 nM; in [6], around 7 nM; in assay [8] (Severe acute respiratory syndrome coronavirus 2, Calu-3, 24 h, read-out: IC50 (virus titer)), 200 nM. Further, the “Processing of WT-S” value in [7] was “clearly impaired”. Moreover, the “Concentration from which inhibitory effect could be observed” value in assay [8] came to 0.25 µM. Further, the “Levels of viral spike and nucleocapsid proteins and progeny virus levels” value in [8] is “similarly decreased”. Also, the “Viral titers at 12, 24 and 48h post-infection” value in assay [8] is reported as “significantly decreased”. Besides, in [8] (1 μM), the “Reduction of titer of progeny viruses” value is on record as “more than 30 fold”. Also, the “Virus production in infected Vero E6 cells” value in assay [9] is “modestly reduce virus production”. Also, the “Decrease in virus production” value in assay [9] (1 μM) is around 5.7 fold. In addition, in assay [10], the “Viral entry in Calu-3 of pseudovirions packaged in presence of inhibitor” value is “prevents viral entry”.
